For assay [1], the target named is T1, human MAO-B (Homo sapiens, UniProt P27338).
T1 sequence (P27338 1-520): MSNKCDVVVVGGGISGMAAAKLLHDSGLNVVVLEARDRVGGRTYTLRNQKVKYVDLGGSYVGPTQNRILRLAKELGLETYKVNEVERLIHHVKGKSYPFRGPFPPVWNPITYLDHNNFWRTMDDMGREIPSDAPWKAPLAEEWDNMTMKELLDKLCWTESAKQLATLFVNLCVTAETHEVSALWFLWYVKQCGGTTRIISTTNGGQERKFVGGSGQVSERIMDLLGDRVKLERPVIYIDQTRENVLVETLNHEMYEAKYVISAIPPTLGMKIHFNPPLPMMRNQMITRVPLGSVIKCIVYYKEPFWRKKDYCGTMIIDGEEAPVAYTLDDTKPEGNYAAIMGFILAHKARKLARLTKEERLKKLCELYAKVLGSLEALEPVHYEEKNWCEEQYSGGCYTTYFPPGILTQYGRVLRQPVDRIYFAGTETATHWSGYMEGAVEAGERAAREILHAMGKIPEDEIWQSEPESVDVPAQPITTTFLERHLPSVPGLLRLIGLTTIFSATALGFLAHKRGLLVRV
As to the kind of experiment: MAO inhibitory assay (kynuramine, fluorescence), MAO-B. It counts as biochemical. On the procedure: (§1) MAO inhibitory activity was assayed using the method of Novaroli et al. with minor modifications. Briefly, 140 μL of 0.1 M potassium phosphate buffer (pH 7.4), 8 μL of 0.75 mM kynuramine, and 2 μL of a dimethyl sulfoxide (DMSO) inhibitor solution (final DMSO concentration of 1% (v/v) and final concentrations of the inhibitors of 0-1 μM), were preincubated at 37° C. for 10 min. Diluted human recombinant enzyme (50 μL) was then added to obtain a final protein concentration of 0.0075 mg/mL (MAO-A) or 0.015 mg/mL (MAO-B) in the assay mixture. The reaction mixture was further incubated at 37° C. and the reaction was stopped after 20 min by the addition of 75 μL of 2 M NaOH. The product generated by MAO, 4-quinolinol, is fluorescent and was measured at Ex 310 nm/Em 400 nm using a microplate reader (Thermo Scientific-Multiskan GO). Each data points of samples were triplicate. The sample solution was replaced with DMSO to provide a negative control.

The target in assay [2] is T2, human MAO-A (Homo sapiens, UniProt P21397).
T2 sequence (P21397 1-527): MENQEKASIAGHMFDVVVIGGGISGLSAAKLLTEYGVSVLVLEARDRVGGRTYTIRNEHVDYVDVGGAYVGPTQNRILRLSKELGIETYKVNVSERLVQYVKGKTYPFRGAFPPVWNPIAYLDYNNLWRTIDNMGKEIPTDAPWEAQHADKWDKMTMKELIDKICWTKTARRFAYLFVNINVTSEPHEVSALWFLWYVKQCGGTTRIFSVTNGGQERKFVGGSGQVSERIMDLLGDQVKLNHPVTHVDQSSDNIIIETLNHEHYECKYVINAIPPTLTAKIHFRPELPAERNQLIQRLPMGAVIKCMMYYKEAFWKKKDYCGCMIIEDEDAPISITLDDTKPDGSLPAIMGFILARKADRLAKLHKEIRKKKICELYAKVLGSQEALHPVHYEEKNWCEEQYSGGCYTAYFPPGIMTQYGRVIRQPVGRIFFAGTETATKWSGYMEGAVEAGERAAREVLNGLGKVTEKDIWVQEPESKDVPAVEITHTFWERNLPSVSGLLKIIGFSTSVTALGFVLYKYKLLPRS
As to the kind of experiment: MAO inhibitory assay (kynuramine, fluorescence), MAO-A. Particulars: human recombinant enzyme, kynuramine substrate, 37° C., pH 7.4. Format: biochemical. On the procedure:
as §1

Turning to `COc1ccc(-c2cc(C(=O)NCCn3cnc4ccccc43)n[nH]2)cc1OC` [compound of formula I], the IC50 in assay [1] (human recombinant enzyme, kynuramine substrate, 37° C., pH 7.4) was found to be 3.22 ± 0.02 nM; in assay [2], 29.5 ± 1.1 nM. In addition, the “fold more potent binding to MOA-B compared to MOA-A” value in assay [1] (ratio of IC50 MAO-A / MAO-B) is given as “approximately 9 fold”.

The values are drawn from US12478613B2, “Selective MAO-B inhibitor DRG-MAOB-2 for use in treatment of neurodegenerative diseases” (BAHCESEHIR UNIVERSITESI, priority 2020, dated 2025).
